Data taken from patent US12077503B2, “Substituted cyclic amides and their use as herbicides” (FMC CORPORATION, priority 2015, dated 2024).

Legend:
Type in all cases: in vivo
corn (Zea mays) [1] = assay: Test G Pre-Emergence Protocol; settings: Zea mays, pre-emergence, 312 h, evaluated after 13 days; for plant injury at 15.625 g/ha: 15.625 g ai/ha; for plant injury at 15.625 g/ha / plant injury at 250 g/ha: read-out: Corn damage rating (100=total damage to plant; 0=no damage to plant); for plant injury at 62.5 g/ha: 62.5 g ai/ha, 100=total damage to plant, 0=no damage to plant, read-out: plant damage rating, Corn; for plant injury at 250 g/ha: 250 g ai/ha
In short: (§1)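 Glasshouse pre-emergence test: soil-sown seeds, sprayed after 1 d at 15.625, 62.5 or 250 g/ha. Conditions 24/16° C day/night, 14 h light, 65% humidity, watering twice daily. Rating 13 d post-spray (100 = total damage).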

[2] = system: barnyardgrass (Echinochloa crus-galli); assay: Test G Pre-Emergence Protocol; settings: Echinochloa crus-galli, pre-emergence, 312 h, evaluated after 13 days; for pest or weed control at 15.625 g/ha: 15.625 g ai/ha, read-out: Barnyard grass damage rating (100=total damage to plant; 0=no damage to plant); for pest or weed control at 62.5 g/ha: 62.5 g ai/ha, 100=total damage to plant, 0=no damage to plant, read-out: plant damage rating, Barnyardgrass; for pest or weed control at 250 g/ha: 250 g ai/ha, read-out: Barnyardgrass damage rating (100=total damage to plant; 0=no damage to plant)
In short: as §1

[3] = system: redroot pigweed (Amaranthus retroflexus); assay: Test G Pre-Emergence Protocol; settings: Amaranthus retroflexus, pre-emergence, 312 h, evaluated after 13 days; for pest or weed control at 15.625 g/ha: 15.625 g ai/ha; for pest or weed control at 15.625 g/ha / pest or weed control at 250 g/ha: read-out: Pigweed, Redroot damage rating (100=total damage to plant; 0=no damage to plant); for pest or weed control at 62.5 g/ha: 62.5 g ai/ha, 100=total damage to plant, 0=no damage to plant, read-out: plant damage rating, Pigweed, Redroot; for pest or weed control at 250 g/ha: 250 g ai/ha
In short: as §1

[4] = system: ivy-leaved morning glory (Ipomoea hederacea); assay: Test G Pre-Emergence Protocol; settings: Ipomoea, pre-emergence, 312 h, evaluated after 13 days; for pest or weed control at 15.625 g/ha: 15.625 g ai/ha, read-out: Morning-glory, Ivy-leaved damage rating (100=total damage to plant; 0=no damage to plant); for pest or weed control at 62.5 g/ha: 62.5 g ai/ha, 100=total damage to plant, 0=no damage to plant, read-out: plant damage rating, Morningglory, Ivy-leaved; for pest or weed control at 250 g/ha: 250 g ai/ha, read-out: Morningglory, Ivy-leaved damage rating (100=total damage to plant; 0=no damage to plant)
In short: as §1

[5] = system: giant foxtail (Setaria faberi); assay: Test G Pre-Emergence Protocol; settings: Setaria faberi, pre-emergence, 312 h, evaluated after 13 days; for pest or weed control at 15.625 g/ha: 15.625 g ai/ha; for pest or weed control at 15.625 g/ha / pest or weed control at 250 g/ha: read-out: Foxtail, Giant damage rating (100=total damage to plant; 0=no damage to plant); for pest or weed control at 62.5 g/ha: 62.5 g ai/ha, 100=total damage to plant, 0=no damage to plant, read-out: plant damage rating, Foxtail, Giant; for pest or weed control at 250 g/ha: 250 g ai/ha
In short: as §1

[6] = system: velvetleaf (Abutilon theophrasti); assay: Test G Pre-Emergence Protocol; settings: Abutilon theophrasti, pre-emergence, 312 h, evaluated after 13 days; for pest or weed control at 15.625 g/ha: 15.625 g ai/ha; for pest or weed control at 15.625 g/ha / pest or weed control at 250 g/ha: read-out: Velvetleaf damage rating (100=total damage to plant; 0=no damage to plant); for pest or weed control at 62.5 g/ha: 62.5 g ai/ha, 100=total damage to plant, 0=no damage to plant, read-out: plant damage rating, Velvetleaf; for pest or weed control at 250 g/ha: 250 g ai/ha
In short: as §1

corn (Zea mays) [7] = assay: Test G Post-Emergence Protocol; settings: Zea mays, post-emergence, 312 h; for plant injury at 15.625 g/ha: 15.625 g ai/ha, evaluated after 13 days (100=total damage to plant; 0=no damage to plant), read-out: Corn damage rating; for plant injury at 62.5 g/ha: 62.5 g ai/ha, read-out: Corn damage rating (100=total damage to plant; 0=no damage to plant); for plant injury at 62.5 g/ha / plant injury at 250 g/ha: evaluated after 13 days; for plant injury at 250 g/ha: 250 g ai/ha, read-out: damage to plant, Corn (100=total damage to plant; 0=no damage to plant)
In short: (§2)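 Values are percent visual injury at 13 days after treatment (0 none, 100 total). Treatment was a post-emergence spray at 15.625, 62.5 or 250 g/ha on 8-day-old pot plants kept at 24/16 °C.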

[8] = system: barnyardgrass (Echinochloa crus-galli); assay: Test G Post-Emergence Protocol; settings: Echinochloa crus-galli, post-emergence, 312 h; for pest or weed control at 15.625 g/ha: 15.625 g ai/ha, evaluated after 13 days (100=total damage to plant; 0=no damage to plant), read-out: Barnyardgrass damage rating; for pest or weed control at 62.5 g/ha: 62.5 g ai/ha, read-out: Barnyardgrass damage rating (100=total damage to plant; 0=no damage to plant); for pest or weed control at 62.5 g/ha / pest or weed control at 250 g/ha: evaluated after 13 days; for pest or weed control at 250 g/ha: 250 g ai/ha, read-out: damage to plant, Barnyardgrass (100=total damage to plant; 0=no damage to plant)
In short: as §2

[9] = system: redroot pigweed (Amaranthus retroflexus); assay: Test G Post-Emergence Protocol; settings: Amaranthus retroflexus, post-emergence, 312 h; for pest or weed control at 15.625 g/ha: 15.625 g ai/ha, evaluated after 13 days (100=total damage to plant; 0=no damage to plant), read-out: Pigweed, Redroot damage rating; for pest or weed control at 62.5 g/ha: 62.5 g ai/ha, read-out: Pigweed, Redroot damage rating (100=total damage to plant; 0=no damage to plant); for pest or weed control at 62.5 g/ha / pest or weed control at 250 g/ha: evaluated after 13 days; for pest or weed control at 250 g/ha: 250 g ai/ha, read-out: damage to plant, Pigweed, Redroot (100=total damage to plant; 0=no damage to plant)
In short: as §2

[10] = system: ivy-leaved morning glory (Ipomoea hederacea); assay: Test G Post-Emergence Protocol; settings: Ipomoea, post-emergence, 312 h; for pest or weed control at 15.625 g/ha: 15.625 g ai/ha, evaluated after 13 days (100=total damage to plant; 0=no damage to plant), read-out: Morningglory, Ivy-leaved damage rating; for pest or weed control at 62.5 g/ha: 62.5 g ai/ha, read-out: Morningglory, Ivy-leaved damage rating (100=total damage to plant; 0=no damage to plant); for pest or weed control at 62.5 g/ha / pest or weed control at 250 g/ha: evaluated after 13 days; for pest or weed control at 250 g/ha: 250 g ai/ha, read-out: damage to plant, Morningglory, Ivy-leaved (100=total damage to plant; 0=no damage to plant)
In short: as §2

[11] = system: giant foxtail (Setaria faberi); assay: Test G Post-Emergence Protocol; settings: Setaria faberi, post-emergence, 312 h; for pest or weed control at 15.625 g/ha: 15.625 g ai/ha, evaluated after 13 days (100=total damage to plant; 0=no damage to plant), read-out: Foxtail, Giant damage rating; for pest or weed control at 62.5 g/ha: 62.5 g ai/ha, read-out: Foxtail, Giant damage rating (100=total damage to plant; 0=no damage to plant); for pest or weed control at 62.5 g/ha / pest or weed control at 250 g/ha: evaluated after 13 days; for pest or weed control at 250 g/ha: 250 g ai/ha, read-out: damage to plant, Foxtail, Giant (100=total damage to plant; 0=no damage to plant)
In short: as §2

[12] = system: velvetleaf (Abutilon theophrasti); assay: Test G Post-Emergence Protocol; settings: Abutilon theophrasti, post-emergence, 312 h; for pest or weed control at 15.625 g/ha: 15.625 g ai/ha, evaluated after 13 days (100=total damage to plant; 0=no damage to plant), read-out: Velvetleaf damage rating; for pest or weed control at 62.5 g/ha: 62.5 g ai/ha, read-out: Velvetleaf damage rating (100=total damage to plant; 0=no damage to plant); for pest or weed control at 62.5 g/ha / pest or weed control at 250 g/ha: evaluated after 13 days; for pest or weed control at 250 g/ha: 250 g ai/ha, read-out: damage to plant, Velvetleaf (100=total damage to plant; 0=no damage to plant)
In short: as §2

CN1C[C@H](c2ccc(C(F)(F)F)cc2)[C@@H](C(=O)Nc2ccc(F)c(F)c2)C1=O (racemic) [Compound 1412]
10%: plant injury at 62.5 g/ha (corn (Zea mays) [1]) | plant injury at 250 g/ha (corn (Zea mays) [1]) | pest or weed control at 250 g/ha [3] | pest or weed control at 15.625 g/ha [5] | pest or weed control at 250 g/ha [6] | plant injury at 62.5 g/ha (corn (Zea mays) [7]) | plant injury at 250 g/ha (corn (Zea mays) [7])
70%: pest or weed control at 250 g/ha [11]
40%: pest or weed control at 62.5 g/ha [9] | pest or weed control at 250 g/ha [9] | pest or weed control at 62.5 g/ha [12] | pest or weed control at 250 g/ha [12]
30%: pest or weed control at 62.5 g/ha [2] | pest or weed control at 15.625 g/ha [9]
60%: pest or weed control at 250 g/ha [2] | pest or weed control at 250 g/ha [8] | pest or weed control at 62.5 g/ha [11]
20%: pest or weed control at 15.625 g/ha [3] | pest or weed control at 62.5 g/ha [3] | plant injury at 15.625 g/ha (corn (Zea mays) [7]) | pest or weed control at 250 g/ha [10]
50%: pest or weed control at 62.5 g/ha [5] | pest or weed control at 62.5 g/ha [8]
80%: pest or weed control at 250 g/ha [5]
0%: plant injury at 15.625 g/ha (corn (Zea mays) [1]) | pest or weed control at 15.625 g/ha [2] | pest or weed control at 15.625 g/ha [4] | pest or weed control at 62.5 g/ha [4] | pest or weed control at 250 g/ha [4] | pest or weed control at 15.625 g/ha [6] | pest or weed control at 62.5 g/ha [6] | pest or weed control at 15.625 g/ha [8] | pest or weed control at 15.625 g/ha [10] | pest or weed control at 62.5 g/ha [10] | pest or weed control at 15.625 g/ha [11] | pest or weed control at 15.625 g/ha [12]

CN1C[C@H](c2ccc(C(F)(F)F)cc2)[C@@H](C(=O)Nc2cccc3nsnc23)C1=O (racemic) [Compound 1430]
60%: pest or weed control at 250 g/ha [2]
20%: pest or weed control at 62.5 g/ha [2] | pest or weed control at 250 g/ha [9]
0%: plant injury at 15.625 g/ha (corn (Zea mays) [1]) | plant injury at 62.5 g/ha (corn (Zea mays) [1]) | plant injury at 250 g/ha (corn (Zea mays) [1]) | pest or weed control at 15.625 g/ha [2] | pest or weed control at 15.625 g/ha [3] | pest or weed control at 62.5 g/ha [3] | pest or weed control at 250 g/ha [3] | pest or weed control at 15.625 g/ha [4] | pest or weed control at 62.5 g/ha [4] | pest or weed control at 250 g/ha [4] | pest or weed control at 15.625 g/ha [6] | pest or weed control at 62.5 g/ha [6] | pest or weed control at 250 g/ha [6] | plant injury at 15.625 g/ha (corn (Zea mays) [7]) | plant injury at 62.5 g/ha (corn (Zea mays) [7]) | plant injury at 250 g/ha (corn (Zea mays) [7]) | pest or weed control at 15.625 g/ha [8] | pest or weed control at 62.5 g/ha [8] | pest or weed control at 15.625 g/ha [9] | pest or weed control at 62.5 g/ha [9] | pest or weed control at 15.625 g/ha [10] | pest or weed control at 62.5 g/ha [10] | pest or weed control at 250 g/ha [10] | pest or weed control at 15.625 g/ha [11] | pest or weed control at 15.625 g/ha [12] | pest or weed control at 62.5 g/ha [12] | pest or weed control at 250 g/ha [12]
10%: pest or weed control at 15.625 g/ha [5] | pest or weed control at 62.5 g/ha [11]
50%: pest or weed control at 62.5 g/ha [5] | pest or weed control at 250 g/ha [11]
80%: pest or weed control at 250 g/ha [5]
30%: pest or weed control at 250 g/ha [8]
